# Test results from patent US7056734B1, “Differentiation of non-insulin producing cells into insulin producing cells by GLP-1 or exendin-4 and uses thereof” (The United States of America as represented by the …, priority 1998, dated 2006).
# What was measured:
# [1] = tested on: GLUT2 mRNA; assay: Slot-blot quantitation of GLUT2 mRNA in pancreata and islets; format: in vivo, rat
# From the text: The rats were implanted with an Alzet micro-osmotic pump (Alza Corp., Palo Alto, Calif.) in the interscapular region for 48 hrs. […] Control animals received normal saline in their pumps and received their infusion for the same length of time.
# After an overnight fast, animals were sacrificed, pancreata were removed and frozen in liquid nitrogen as quickly as possible. RNA was extracted by homogenization in guanidinium isothiocyanate, followed by ultracentrifugation on a 5.7 M cesium chloride cushion (Glisin et al., 1974; Chigwin et al., 1979). Poly-A RNA was then prepared from total RNA by affinity chromatography using oligo (dT) columns (Biolabs INC, Beverly, Mass.). RNA was quantified by spectrophotometric analysis at […]. Slot-blot analysis using poly-A RNA was used for quantitation of mRNA levels of glucokinase, which is the main glucose sensor of the beta cell (Matschinsky, 1990), the three hexokinases, GLUT2, the major glucose transporter of the beta cell (Mueckler, 1990), and insulin. Four micrograms of poly-A RNA were diluted in 50 μl TE buffer (Tris-HCL 10 mM, EDTA 1 mM, pH 7.4), 20 μl of 37% formaldehyde and 20 μl of 10× SSC. Samples were incubated at 60° C. for 15 min and then diluted with 1 ml of ice-cold 10× SSC (1×SCC=0.15 M NaCl+0.015 sodium citrate). […]
# [2] = tested on: non-diabetic mice; assay: Daily ip exendin-4 in non-diabetic littermates; format: in vivo, mouse
# From the text: Animals. Four month old Wistar rats from the Wistar colony in the NIA (Baltimore, Md.) were used for the acute experiments of the effects of exendin-4 and GLP-1 (see Example 1). They had been maintained on standard lab chow and fed ad libitum. For the long-term experiments, diabetic mice (C57BLKS/J-Lepr^db/Lepr^db) lacking the leptin receptor, and their non-diabetic littermates were purchased at 4 weeks of age from Jackson Laboratories (Bar Harbor, Me.). They were housed two per cage and also were fed ad libitum. The same mice were caged together for the duration of the study. Wistar rats are caged on wire while the bedding for the mice was a paper based product, “Carefresh” (Absorption Co., Bellingham, Wash.).
# Eleven diabetic and 10 non-diabetic animals received […] exendin-4 ip daily thereafter (7–9 am) while 10 diabetic and 10 non-diabetic animals received ip NaCl. Subsequently, whole blood glucose levels, taken from a retro-orbital sinus, were determined in the mice using a Glucometer Elite (Bayer). This regimen was continued for 12–13 weeks. […] Animals were weighed weekly. After one week of the regimen blood samples were again taken from a retro-orbital sinus for determination of insulin and glucose levels. At the end of the regimen, fasting blood samples were obtained for glucose and insulin levels and whole blood containing EDTA was assayed for hemoglobin A1c (Hb A1c) on the same day from the four groups.
# Assays. Plasma glucose was measured by the glucose oxidase method (Wang et al., 1997). Insulin was measured by RIA as previously described (See Example 1). Hb A1c was assayed using a BIO-RAD (Herculas Calif.) DiaSTAT machine which uses low pressure cation exchange chromatography in conjunction with gradient elution to separate hemoglobin subtypes and variants from hemolyzed blood. The separated hemoglobin fractions were monitored by means of absorption of light at 415 nm.
# [3] = tested on: beta cells of the pancreas; settings: Goke et al., 1993; cited from earlier work
Compound,"effect on decreased GLUT-2 mRNA levels ([1]; old animals (decreased by 70% vs young controls), P<0.001)",effect on GLUT2 mRNA levels ([1]; young animals),trends in glucose and insulin ([2]; 12–13 weeks),"Hb A1c ([2]; 12–13 weeks, p=0.0002)","fasting glucose level after one week of treatment ([2]; NaCl-treated 135±5, p<0.05)",deaths just after receiving exendin-4 ([2]; day eight),lowest concentrations increasing cAMP and insulin secretion [3]
CC[C@H](C)[C@H](NC(=O)[C@H](Cc1ccccc1)NC(=O)[C@H](CCC(=O)O)NC(=O)[C@H](CCCCN)NC(=O)[C@H](C)NC(=O)[C@H](C)NC(=O)[C@H](CCC(N)=O)NC(=O)CNC(=O)[C@H](CCC(=O)O)NC(=O)[C@H](CC(C)C)NC(=O)[C@H](Cc1ccc(O)cc1)NC(=O)[C@H](CO)NC(=O)[C@H](CO)NC(=O)[C@@H](NC(=O)[C@H](CC(=O)O)NC(=O)[C@H](CO)NC(=O)[C@@H](NC(=O)[C@H](Cc1ccccc1)NC(=O)[C@@H](NC(=O)CNC(=O)[C@H](CCC(=O)O)NC(=O)[C@H](C)NC(=O)[C@@H](N)Cc1c[nH]cn1)[C@@H](C)O)[C@@H](C)O)C(C)C)C(=O)N[C@@H](C)C(=O)N[C@@H](Cc1c[nH]c2ccccc12)C(=O)N[C@@H](CC(C)C)C(=O)N[C@H](C(=O)N[C@@H](CCCCN)C(=O)NCC(=O)N[C@@H](CCCNC(=N)N)C(N)=O)C(C)C [GLP-1],entirely reversed,did not significantly influence,,,,,
exendin-4,,,the same in the non-diabetic animals with exendin-4 treatment though not as dramatic,3.5%,70 ± 25 mg/dL,two of the non-diabetic mice,10^−10 M
